From patent US7902148B2, “Use of an echinocandin antifungal agent in combination with a glycopeptide antibacterial agent” (Theravance, Inc., priority 2003, dated 2011) come the findings set out here.

Experiment [1] concerns R. miscrosporus ATCC 14050. In words: Checkerboard MIC assay for FICI. In kind it is cell-based, Rhizopus microsporus. Conditions: combination with caspofungin. The text has this: (§1) The following assay was used to determine the minimum inhibitory concentration (MIC) and fractional inhibitory concentration index (FICI) for combinations of antifungal agents and antibacterial agents. This assay and methods for calculating FICI are well known in the art. See, for example, Eliopoulos, E. G. and R. Moellering, Jr. “Antimicrobial Combinations” in Antibiotics in Laboratory Medicine, edited by V. Lorian, 4th Ed., Williams & Wilkins, Baltimore, Md., pp. 330-396 (1996); Shalit et al., Antimicrobial Agents and Chemotherapy 47(4):1416-1418 (2003); or Afeltra et al., Antimicrobial Agents and Chemotherapy 46(10):3323-3326 (2002).
(§2) Using a checkerboard method, a 2-fold dilution 100× final concentration master plate was prepared using a 96-well U-shape microtiter plate and an appropriate solvent. In the “checkerboard” method, a microtiter plate is divided into “columns” in which each well in the column contains the same amount of an antifungal agent (Compound A) being diluted along the x-axis, and “rows” in which each well in the row contains the same amount of a glycopeptide antibacterial agent (Compound B) being diluted on the γ-axis. Also included is a row (or column) for Compound A or B alone. The dilutions used in the checkerboard are exponential (by powers of two). […]

For a further experiment, the system named is C. glabrata ATCC 200918. In words: Checkerboard MIC assay for FICI. In kind it is cell-based, Candida glabrata.
Text: as §1
(§3) Using a checkerboard method, a 2-fold dilution 100× final concentration master plate was prepared using a 96-well U-shape microtiter plate and an appropriate solvent. In the “checkerboard” method, a microtiter plate is divided into “columns” in which each well in the column contains the same amount of an antifungal agent (Compound A) being diluted along the x-axis, and “rows” in which each well in the row contains the same amount of a glycopeptide antibacterial agent (Compound B) being diluted on the γ-axis. Also included is a row (or column) for Compound A or B alone. The dilutions used in the checkerboard are exponential (by powers of two). The result is that each well in the microtiter plate contains a unique concentration of the two compounds being tested.
(§4) A matrix 2× final concentration was performed by transferring 30 μL of 100× Compound A and Compound B into a 1,440 μL RPMI in deep wells (one deep well per drug combination). After mixing, 100 μL of 2× drug combinations were distributed into 96-well microtiter plates. Compound A was diluted from Column 1 starting at 1,600 μg/mL to Column 11 (1.6 μg/mL). Wells in Column 1 contained a final concentration (after inoculum was added) of 16 μg/mL of Compound A; wells in Column 2 contained a final concentration of 8 μg/mL of Compound A; wells in Column 3 contained a final concentration of 4 μg/mL of Compound A; etc. Compound A was not added to Column 12, so Column 12 contained only Compound B.
(§5) Compound B was diluted from row A starting at 6,400 μg/mL down to row G (100 μg/mL). Wells in Row A contained a final concentration of 64 μg/mL of Compound B; Row B contained a final concentration of 32 μg/mL of Compound B; Row C contained a final concentration of 16 μg/mL of Compound B; etc. Compound B was not added to Row H, so Row H only contained Compound A.
(§6) In most cases, MIC of the glycopeptide antibacterial compound alone was >64 μg/mL. In order to get an accurate measurement, a standard MIC assay using NCCLS protocols was performed with an extended concentration range of from 256 μg/mL to 0.25 μg/mL. […]

The next experiment relates to A. flavus ATCC 64025. In words: Checkerboard MIC assay for FICI. In kind it is cell-based, Aspergillus flavus. Conditions: combination with caspofungin.
Text: as §1, §2

For experiment [2], the system named is F. moniliforme ATCC 38159. Description: Checkerboard MIC assay for FICI. In kind it is cell-based, Fusarium moniliforme. As to conditions: combination with caspofungin.
Text: as §1, §2

The next experiment deals with C. tropicalis ATCC 750. In words: Checkerboard MIC assay for FICI. In kind it is cell-based, Candida tropicalis.
Text: as §1, §3, §4, §5, §6

The next experiment relates to C. neoformans ATCC 56991. In words: Checkerboard MIC assay for FICI. In kind it is cell-based, Cryptococcus neoformans.
Text: as §1, §2

Another experiment concerns P. boydii ATCC 38283. In words: Checkerboard MIC assay for FICI. In kind it is cell-based, Pseudallescheria boydii. As to conditions: combination with caspofungin.
Text: as §1, §2

The subject of another experiment is A. fumigatus ATCC 14110. Description: Checkerboard MIC assay for FICI. As to conditions: combination with caspofungin. In kind it is cell-based, Aspergillus fumigatus.
Text: as §1, §2

Another experiment deals with C. albicans ATCC 24433. In words: Checkerboard MIC assay for FICI. In kind it is cell-based, Candida albicans.
Text: as §1, §3, §4, §5, §6

The subject of another experiment is G. candidum ATCC 62231. Description: Checkerboard MIC assay for FICI. In kind it is cell-based, Geotricium candidum. As to conditions: combination with caspofungin.
Text: as §1, §2

Another experiment has as its system C. krusei ATCC 32672. In words: Checkerboard MIC assay for FICI. In kind it is cell-based, Candida krusei.
Text: as §1, §3, §4, §5, §6

Experiment [3] deals with C. parapsilosis ATCC 22019. Description: Checkerboard MIC assay for FICI. In kind it is cell-based, Candida parapsilosis.
Text: as §1, §3, §4, §5, §6

Experiment [4] has as its system M. circinelloides ATCC 26759. In words: Checkerboard MIC assay for FICI. In kind it is cell-based, Mucor circinelloides. As to conditions: combination with caspofungin.
Text: as §1, §2

The subject of a further experiment is various strains of fungi. In words: Assay for determining MIC and FICI, summary statements over strains. In kind it is cell-based.
Text: as §1
FICI values are typically evaluated using the following criteria:
Using a checkerboard method, a 2-fold dilution 100× final concentration master plate was prepared using a 96-well U-shape microtiter plate and an appropriate solvent. In the “checkerboard” method, a microtiter plate is divided into “columns” in which each well in the column contains the same amount of an antifungal agent (Compound A) being diluted along the x-axis, and “rows” in which each well in the row contains the same amount of a glycopeptide antibacterial agent (Compound B) being diluted on the γ-axis. […]
The calculated value for the FICI of the combined test compounds was compared to the following standards in certain embodiments: […]

The subject of another experiment is A. terreus ATCC 46941. Description: Checkerboard MIC assay for FICI. In kind it is cell-based. As to conditions: combination with caspofungin.
Text: as §1, §2

The test system of experiment [5] is S. prolificans ATCC 200543. Description: Checkerboard MIC assay for FICI. In kind it is cell-based. Conditions: combination with caspofungin.
Text: as §1, §2

For the compound `CCCCCCCCCCNCCN[C@@]1(C)C[C@H](O[C@H]2[C@H](Oc3c4cc5cc3Oc3ccc(cc3Cl)[C@@H](O)[C@@H](NC(=O)[C@@H](CC(C)C)NC)C(=O)N[C@@H](CC(N)=O)C(=O)N[C@H]5C(=O)N[C@H]3C(=O)N[C@H](C(=O)N[C@H](C(=O)O)c5cc(O)c(CNCP(=O)(O)O)c(O)c5-c5cc3ccc5O)[C@H](O)c3ccc(c(Cl)c3)O4)O[C@H](CO)[C@@H](O)[C@@H]2O)O[C@@H](C)[C@H]1O` [Compound 1, telavancin], the FICI in [1] is listed as 2; in the experiment on C. glabrata ATCC 200918 (combination with caspofungin) it was 0.28; with A. flavus ATCC 64025, 0.16; in experiment [2], 2; in the experiment on C. tropicalis ATCC 750 (combination with caspofungin), 0.26; in the experiment with C. neoformans ATCC 56991 (combination with caspofungin, C. neoformans ATCC 56991, checkerboard) it was 0.75. In addition, the FICI worked out at 0.31 in the experiment on P. boydii ATCC 38283; 0.28 with A. fumigatus ATCC 14110; 0.27 in the experiment on C. albicans ATCC 24433 (combination with caspofungin); 0.31 in the experiment on G. candidum ATCC 62231; 0.31 with C. krusei ATCC 32672 (combination with caspofungin); 0.38 in experiment [3] (combination with caspofungin). Also, the FICI in experiment [4] is 2; in the experiment with A. terreus ATCC 46941 it was 0.31; in [5] it was 1.25. In addition, in the experiment on various strains of fungi (all yeast strains tested, except C. neoformans, FICI ≦ 0.5 = synergistic), the “effect of the combination with caspofungin” value is reported as “synergistic”.

Turning to `OC(Cn1cncn1)(Cn1cncn1)c1ccc(F)cc1F` [Fluconazole], the FICI (in the experiment with C. glabrata ATCC 200918 (combination with Compound 1); in the experiment with C. tropicalis ATCC 750 (combination with Compound 1); with C. albicans ATCC 24433 (combination with Compound 1); in the experiment with C. krusei ATCC 32672 (combination with Compound 1); in [3] (combination with Compound 1)) was 2.00 in each case.

`Clc1ccc(COC(Cn2ccnc2)c2ccc(Cl)cc2Cl)c(Cl)c1` (stereo not drawn) [Miconazole]: the FICI (in the experiment on C. tropicalis ATCC 750 (combination with Compound 1); in the experiment on C. albicans ATCC 24433 (combination with Compound 1); in experiment [3] (combination with Compound 1)) was 2.00 each time.

On to `CN[C@H](CC(C)C)C(=O)N[C@H]1C(=O)N[C@@H](CC(N)=O)C(=O)N[C@H]2C(=O)N[C@H]3C(=O)N[C@H](C(=O)N[C@H](C(=O)O)c4cc(O)cc(O)c4-c4cc3ccc4O)[C@H](O)c3ccc(c(Cl)c3)Oc3cc2cc(c3O[C@@H]2O[C@H](CO)[C@@H](O)[C@H](O)[C@H]2O[C@H]2C[C@](C)(N)[C@H](O)[C@H](C)O2)Oc2ccc(cc2Cl)[C@H]1O` [Vancomycin], for which the FICI (with C. glabrata ATCC 200918 (combination with caspofungin); in the experiment on C. tropicalis ATCC 750 (combination with caspofungin); in the experiment on C. albicans ATCC 24433 (combination with caspofungin); in the experiment with C. krusei ATCC 32672 (combination with caspofungin); in experiment [3] (combination with caspofungin)) was 2.00 throughout. In the experiment on various strains of fungi (strains of Table 1, FICI criteria of b187), the “effect of the combination with caspofungin” value is “not synergistic or additive”.

With `C[C@@H](c1ncncc1F)[C@](O)(Cn1cncn1)c1ccc(F)cc1F` [Voriconazole, voriconazole], the FICI with C. glabrata ATCC 200918 (combination with Compound 1) and in the experiment with C. krusei ATCC 32672 (combination with Compound 1) was 1.13 in each case.

Take `CC[C@H](C)C[C@H](C)CCCCCCCCC(=O)N[C@H]1C[C@@H](O)[C@@H](NCCN)NC(=O)[C@@H]2[C@@H](O)CCN2C(=O)[C@H]([C@H](O)CCN)NC(=O)[C@H]([C@H](O)[C@@H](O)c2ccc(O)cc2)NC(=O)[C@@H]2C[C@@H](O)CN2C(=O)[C@H]([C@@H](C)O)NC1=O` [caspofungin]: in the experiment with C. neoformans ATCC 56991 (caspofungin alone), the “activity of caspofungin against C. neoformans” value is given as “no activity”.
